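1) Cells in 96-well plates. 2) Compound, 48 h, 5 concentrations. 3) Linear interpolation between surrounding doses. 4) Unreached endpoint = highest concentration. TGI marks complete inhibition of growth.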
Assays:
Experiment in all cases: NCI tumour cell line growth inhibition, 48 h
OVCAR-4 ovarian = test system: OVCAR-4 ovarian
M14 melanoma = test system: M14 melanoma
OVCAR-3 ovarian = test system: OVCAR-3 ovarian
SF-539 CNS = test system: SF-539 CNS
SNB-75 CNS = test system: SNB-75 CNS
KM12 colon = test system: KM12 colon
PC-3 prostate = test system: PC-3 prostate
NCI-H522 lung = test system: NCI-H522 lung
NCI-H226 lung = test system: NCI-H226 lung
NCI/ADR-RES ovarian = test system: NCI/ADR-RES ovarian
EKVX NSCLC = test system: EKVX NSCLC
DU-145 prostate = test system: DU-145 prostate
RPMI-8226 leukemia = test system: RPMI-8226 leukemia
IGROV1 ovarian = test system: IGROV1 ovarian
HCC-2998 colon = test system: HCC-2998 colon
HCT-15 colon = test system: HCT-15 colon
SK-MEL-5 melanoma = test system: SK-MEL-5 melanoma
TK-10 renal = test system: TK-10 renal
SF-295 CNS = test system: SF-295 CNS
OVCAR-8 ovarian = test system: OVCAR-8 ovarian
K-562 leukemia = test system: K-562 leukemia
A549 NSCLC = test system: A549 NSCLC
MDA-N = test system: MDA-N
SW-620 colon = test system: SW-620 colon
NCI-H23 lung = test system: NCI-H23 lung
UACC-257 melanoma = test system: UACC-257 melanoma
MDA-MB-435 = test system: MDA-MB-435
COLO 205 colon = test system: COLO 205 colon
SNB-19 CNS = test system: SNB-19 CNS
SK-MEL-2 melanoma = test system: SK-MEL-2 melanoma
NCI-H460 lung = test system: NCI-H460 lung
786-0 renal = test system: 786-0 renal
RXF 393 renal = test system: RXF 393 renal
BT-549 breast = test system: BT-549 breast
SK-OV-3 ovarian = test system: SK-OV-3 ovarian
LOX IMVI melanoma = test system: LOX IMVI melanoma
HCT-116 colon = test system: HCT-116 colon
U251 CNS = test system: U251 CNS
HOP-92 NSCLC = test system: HOP-92 NSCLC
HS 578T breast = test system: HS 578T breast
MCF7 breast = test system: MCF7 breast
SF-268 CNS = test system: SF-268 CNS
UACC-62 melanoma = test system: UACC-62 melanoma
HOP-62 NSCLC = test system: HOP-62 NSCLC
OVCAR-5 ovarian = test system: OVCAR-5 ovarian
MALME-3M melanoma = test system: MALME-3M melanoma
HT29 colon = test system: HT29 colon
SN12C renal = test system: SN12C renal
UO-31 renal = test system: UO-31 renal
ACHN renal = test system: ACHN renal
SK-MEL-28 melanoma = test system: SK-MEL-28 melanoma
CAKI-1 renal = test system: CAKI-1 renal
MDA-MB-231 breast = test system: MDA-MB-231 breast
A498 renal = test system: A498 renal
SR leukemia = test system: SR leukemia

O=C(O)CSc1nnc2c3ccccc3c3ccccc3c2n1
TGI (OVCAR-4 ovarian): > 100 µM | TGI (M14 melanoma): > 100 µM | TGI (OVCAR-3 ovarian): > 100 µM | TGI (SF-539 CNS): > 100 µM | TGI (SNB-75 CNS): > 100 µM | TGI (KM12 colon): > 100 µM | TGI (PC-3 prostate): > 100 µM | TGI (NCI-H522 lung): > 100 µM | TGI (NCI-H226 lung): > 100 µM | TGI (NCI/ADR-RES ovarian): > 100 µM | TGI (EKVX NSCLC): > 100 µM | TGI (DU-145 prostate): > 100 µM | TGI (RPMI-8226 leukemia): 99.4 µM | TGI (IGROV1 ovarian): > 100 µM | TGI (HCC-2998 colon): > 100 µM | TGI (HCT-15 colon): > 100 µM | TGI (SK-MEL-5 melanoma): > 100 µM | TGI (TK-10 renal): > 100 µM | TGI (SF-295 CNS): > 100 µM | TGI (OVCAR-8 ovarian): > 100 µM | TGI (K-562 leukemia): > 100 µM | TGI (A549 NSCLC): > 100 µM | TGI (MDA-N): > 100 µM | TGI (SW-620 colon): > 100 µM | TGI (NCI-H23 lung): > 100 µM | TGI (UACC-257 melanoma): > 100 µM | TGI (MDA-MB-435): > 100 µM | TGI (COLO 205 colon): > 100 µM | TGI (SNB-19 CNS): > 100 µM | TGI (SK-MEL-2 melanoma): > 100 µM | TGI (NCI-H460 lung): > 100 µM | TGI (786-0 renal): > 100 µM | TGI (RXF 393 renal): > 100 µM | TGI (BT-549 breast): > 100 µM | TGI (SK-OV-3 ovarian): > 100 µM | TGI (LOX IMVI melanoma): > 100 µM | TGI (HCT-116 colon): > 100 µM | TGI (U251 CNS): > 100 µM | TGI (HOP-92 NSCLC): > 100 µM | TGI (HS 578T breast): > 100 µM | TGI (MCF7 breast): > 100 µM | TGI (SF-268 CNS): > 100 µM | TGI (UACC-62 melanoma): > 100 µM | TGI (HOP-62 NSCLC): > 100 µM | TGI (OVCAR-5 ovarian): > 100 µM | TGI (MALME-3M melanoma): > 100 µM | TGI (HT29 colon): > 100 µM | TGI (SN12C renal): > 100 µM | TGI (UO-31 renal): > 100 µM | TGI (ACHN renal): > 100 µM | TGI (SK-MEL-28 melanoma): > 100 µM | TGI (CAKI-1 renal): > 100 µM | TGI (MDA-MB-231 breast): > 100 µM | TGI (A498 renal): > 100 µM | TGI (SR leukemia): > 100 µM

N#CC(CC(=O)O)=C(c1ccccc1)c1ccccc1
TGI (OVCAR-4 ovarian): > 100 µM | TGI (M14 melanoma): > 100 µM | TGI (OVCAR-3 ovarian): > 100 µM | TGI (SF-539 CNS): > 100 µM | TGI (SNB-75 CNS): > 100 µM | TGI (KM12 colon): > 100 µM | TGI (PC-3 prostate): > 100 µM | TGI (NCI-H522 lung): > 100 µM | TGI (NCI-H226 lung): > 100 µM | TGI (NCI/ADR-RES ovarian): > 100 µM | TGI (EKVX NSCLC): > 100 µM | TGI (RPMI-8226 leukemia): > 100 µM | TGI (IGROV1 ovarian): > 100 µM | TGI (HCC-2998 colon): > 100 µM | TGI (HCT-15 colon): > 100 µM | TGI (SK-MEL-5 melanoma): > 100 µM | TGI (TK-10 renal): > 100 µM | TGI (SF-295 CNS): > 100 µM | TGI (OVCAR-8 ovarian): > 100 µM | TGI (K-562 leukemia): > 100 µM | TGI (A549 NSCLC): > 100 µM | TGI (MDA-N): > 100 µM | TGI (SW-620 colon): > 100 µM | TGI (NCI-H23 lung): > 100 µM | TGI (UACC-257 melanoma): > 100 µM | TGI (MDA-MB-435): > 100 µM | TGI (COLO 205 colon): > 100 µM | TGI (SNB-19 CNS): > 100 µM | TGI (SK-MEL-2 melanoma): > 100 µM | TGI (NCI-H460 lung): > 100 µM | TGI (786-0 renal): > 100 µM | TGI (BT-549 breast): > 100 µM | TGI (SK-OV-3 ovarian): > 100 µM | TGI (LOX IMVI melanoma): > 100 µM | TGI (HCT-116 colon): > 100 µM | TGI (U251 CNS): > 100 µM | TGI (HOP-92 NSCLC): > 100 µM | TGI (HS 578T breast): > 100 µM | TGI (MCF7 breast): > 100 µM | TGI (SF-268 CNS): > 100 µM | TGI (UACC-62 melanoma): > 100 µM | TGI (HOP-62 NSCLC): > 100 µM | TGI (OVCAR-5 ovarian): > 100 µM | TGI (MALME-3M melanoma): > 100 µM | TGI (HT29 colon): > 100 µM | TGI (SN12C renal): > 100 µM | TGI (UO-31 renal): > 100 µM | TGI (ACHN renal): > 100 µM | TGI (SK-MEL-28 melanoma): > 100 µM | TGI (CAKI-1 renal): > 100 µM | TGI (MDA-MB-231 breast): > 100 µM | TGI (A498 renal): > 100 µM | TGI (SR leukemia): > 100 µM

— PubChem BioAssay (NCI)
